Measured values reported in patent US20230323475A1, “TEST METHOD, OF DIVIDING BLASTIC PLASMACYTOID DENDRITIC CELL NEOPLASM (BPDCN) INTO SUBTYPES” (JAPANESE FOUNDATION FOR CANCER RESEARCH, priority 2016, published 2023).

Tests used:
Format in all cases: cell-based
[1] = system: BPDCN cell line CAL-1 (MYC+BPDCN); experiment: Cell survival rate (Cell Titer-Glo cell growth assay), CAL-1; conditions: for survival rate of the CAL-1 cell line: CAL-1, 48 hours after addition of the BET bromodomain-selective inhibitor
Description: (§1) The cell lines used were 4 lines: BPDCN cell lines CAL-1 (MYC^+BPDCN; Non Patent Literature 11; obtained from Nagasaki University) and PMDC05 (MYC-BPDCN; Non Patent Literature 12; obtained from Niigata University), a positive control plasma cell neoplasm KMS12PE (obtained from JCRB Cell Bank) having the increased expression of MYC, and a negative control leukemia cell line K562 (obtained from JCRB Cell Bank) in which no MYC gene rearrangement was seen.
(§2) The CAL-1, PMDC05, or KMN12PE cells at 4000 cells/well or K562 at 1000 cells/well were inoculated to 96-well cell culture plates. […] The cell survival rates were measured using a cell growth assay kit using CTG reagent (Cell Titer-Glo, manufactured by Promega Corp.).
(§3) Aurora kinase inhibitors, albeit not agents directly suppressing MYC expression, were analyzed for their effects in the present invention. […] Each inhibitor was added from 1 nm to 10000 nM to the medium of the cells of each line. 48 hours later, the survival rates of these cells were analyzed (FIG. 10).
(§4) Each inhibitor was added in the concentration of 1 nM to 10000 nM to the 4 cell lines described above. The survival rates of these cells were analyzed 48 hours later (FIG. 11).

[2] = system: PARP cleavage in K562 cells; experiment: Western blot for PARP cleavage after JQ1, K562; conditions: K562, JQ1 for 24 hours, FIG. 9
Description: (§5) The primary antibody used was anti-cMyc rabbit monoclonal antibody (manufactured by Abcam plc) and an anti-GAPDH mouse monoclonal antibody (manufactured by Merck Millipore) as control. The secondary antibody used was a HRP-labeled anti-rabbit IgG antibody (donkey, manufactured by Amersham Biosciences Corp.). SuperSignal West Femto Maximum Sensitivity Substrate (manufactured by Pierce/Thermo Fisher Scientific Inc.) was used for detection.
(§6) As mentioned above, it was shown that the cell growth was suppressed by the addition of the BET bromodomain-selective inhibitors to a medium. Next, analysis was conducted on a mechanism underlying the suppression of the cell growth. JQ1 was added to CAL-1, PMDC05, KMS12PE, and K562 cells. Twenty-four hours later, the cells were collected and analyzed by Western blot for MYC expression and PARP cleavage serving as an index for cell death by apoptosis. An anti-PARP antibody was obtained from Cell Signaling Technology, Inc.

[3] = system: MYC expression and PARP cleavage in CAL-1 cells; experiment: Western blot for MYC expression and PARP cleavage after JQ1, CAL-1; conditions: CAL-1, 400 nM JQ1 for 24 hours, compared with untreated cells, FIG. 9
Description: as §5, §6

[4] = system: MYC expression in CAL-1 cells; experiment: MYC expression over time by immunostaining, CAL-1; conditions: FIG. 7
Procedure: The ratios of MYC-positive cells at the time of JQ1 addition (0 hours), 6 hours later, 24 hours later, and 48 hours later were approximately 95%, 60%, 15%, and 0%, respectively. Good correlation was observed between decrease in cell survival rate and decrease in MYC expression level.

[5] = system: negative control leukemia cell line K562; experiment: Cell survival rate (Cell Titer-Glo cell growth assay), K562; conditions: 48 hours, JQ1 at 1000 nM or more, FIG. 6
Description: as §1, §2

[6] = system: MYC expression and PARP cleavage in KMS12PE cells; experiment: Western blot for MYC expression and PARP cleavage after JQ1, KMS12PE; conditions: 400 nM JQ1 for 24 hours, compared with untreated cells, FIG. 9
Description: as §5, §6

[7] = system: PARP cleavage in PMDC05 cells; experiment: Western blot for PARP cleavage after JQ1, PMDC05; conditions: PMDC05, JQ1 for 24 hours, FIG. 9
Description: as §5, §6

[8] = system: BPDCN cell line PMDC05 (MYC-BPDCN); experiment: Cell survival rate (Cell Titer-Glo cell growth assay), PMDC05; conditions: PMDC05, 48 hours, FIG. 6
Description: as §1, §2, §3, §4

[9] = inhibitor added at a high concentration

Cc1sc2c(c1C)C(c1ccc(Cl)cc1)=N[C@@H](CC(=O)OC(C)(C)C)c1nnc(C)n1-2 [JQ1]
concentration above which the survival rate of CAL-1 was rapidly decreased ([1]; CAL-1, 48 hours after addition, 6.25 nM to 6400 nM, FIG. 6): exceeded 150 nM
increased PARP cleavage [2]: not observed
MYC expression (Western blot) [3]: markedly decreased
expression of cleaved-PARP (index for cell death by apoptosis) [3]: increased
ratio of MYC-positive cells ([4]; CAL-1, 400 nM JQ1, 6 hours later): ~60%
ratio of MYC-positive cells ([4]; CAL-1, 400 nM JQ1, 24 hours later): ~15%
ratio of MYC-positive cells ([4]; CAL-1, 400 nM JQ1, 48 hours later): ~0%
ratio of MYC-positive cells ([4]; CAL-1, 400 nM JQ1, at the time of JQ1 addition (0 hours)): approximately 95%
survival rate of K562 [5]: high survival rate
MYC expression (Western blot) [6]: markedly decreased
expression of cleaved-PARP (index for cell death by apoptosis) [6]: increased
increased PARP cleavage [7]: not observed
survival rate of PMDC05 ([8]; JQ1 added at a high concentration of 1000 nM or more): high survival rate

COc1cc(Nc2ncc3c(n2)-c2ccc(Cl)cc2C(c2c(F)cccc2OC)=NC3)ccc1C(=O)O [alisertib]
growth suppressive or inhibitory effect on CAL-1 compared with PMDC05 cells ([1]; 1 nM to 10000 nM, 48 hours, FIG. 10): higher growth suppressive or inhibitory effect
growth suppression of BPDCN cell lines that exhibited MYC expression ([1]; summary statement in the description): effective

COc1cc2c(cc1-c1c(C)noc1C)ncc1[nH]c(=O)n([C@H](C)c3ccccn3)c12 [I-BET151]
survival rate of the CAL-1 cell line ([1]; FIG. 6): sharply decreased
survival rate of PMDC05 [8, 9]: high survival rate

Cc1sc2c(c1C)C(c1ccc(Cl)cc1)=N[C@@H](CC(=O)Nc1ccc(O)cc1)c1nnc(C)n1-2 [OTX015]
survival rate of the CAL-1 cell line ([1]; FIG. 6): sharply decreased
survival rate of PMDC05 [8, 9]: high survival rate

COc1ccccc1S(=O)(=O)Nc1ccc2c(c1)CN(C)C(=O)N2 [PFI-1]
survival rate of the CAL-1 cell line ([1]; FIG. 6): sharply decreased
survival rate of PMDC05 [8, 9]: high survival rate

Cc1sc2c(c1C)C(c1ccc(Cl)cc1)=N[C@@H](CC(N)=O)c1nnc(C)n1-2 [CPI203]
survival rate of the CAL-1 cell line ([1]; FIG. 6): sharply decreased
survival rate of PMDC05 [8, 9]: high survival rate
